In patent US20090155345A1, “METHODS FOR AFFECTING LIPOSOME COMPOSITION ULTRASOUND IRRADIATION” (BEN GURION UNIVERSITY OF THE NEGEV RESEARCH AND DEVELOPMENT …, priority 2005, published 2009):
Where a name gives a salt, the structure may show the parent alone.

Assays:
[1] = Chemical integrity of LFUS-irradiated drugs and lipids (HPLC, NMR, TLC); type: physicochemical; conditions: 20 kHz, 3.3 W/cm^2, 30 to 180 s; HPLC (doxorubicin, MPS), NMR (cisplatin)
Procedure: Thin layer gel chromatography (TLC) was used to determine if any chemical changes were induced in the liposome lipids by exposure to ultrasonic irradiation.
MPS concentration and chemical integrity were determined using HPLC (Hewlett Packard Liquid Chromatograph 1090). ChemStation software (Hewlett Packard) controlled all modules and was used for analysis of the chromatography data. The analytical column used was a C18 5-micron Econosphere, length 150 mm, inner diameter 4.6 mm (Alltech, Carnforth, UK). Sample injection volume was 20 μL. Eluent was monitored at a wavelength of 245 nm with a 10 nm bandwidth.
Experiments were performed on an INOVA 500-MHz spectrometer (Varian, Palo Alto, Calif.) using standard pulse sequences. The Pt chemical shifts were assigned relative to the external reference signal of K2PtCl4, set at −1,624 ppm.

[2] = cited from earlier work

Structure (SMILES) | chemical changes of drug after LFUS [1] | pKa [2]
COc1cccc2c1C(=O)c1c(O)c3c(c(O)c1C2=O)C[C@@](O)(C(=O)CO)C[C@@H]3O[C@H]1C[C@H](N)[C@H](O)[C@H](C)O1 [doxorubicin, Doxorubicin-HCl] | does not induce any chemical changes | 
N.N.[Cl][Pt][Cl] [cisplatin, Cisplatin] | does not induce any chemical changes | 
C[C@H]1C[C@@H]2[C@H]([C@@H](O)C[C@@]3(C)[C@H]2CC[C@]3(O)C(=O)COC(=O)CCC(=O)O)[C@@]2(C)C=CC(=O)C=C12 [MPS, Methylprednisolone hemisuccinate sodium salt] |  | 4.65
